Where two headings read alike, the source gives them in different places.
Columns and labels:
[1] = test system: patient with a severe form of Alzheimer's disease with incontinence of stool and urine; settings: one patient
Experimental: (§1) A patient with a severe form of Alzheimer's disease with incontinence of stool and urine was given an inhaled gas mixture containing 3% (v/v) hydrogen gas and 21% (v/v) oxygen gas 2× daily for one hour.
In more detail, the patient was a person who was diagnosed with typical Alzheimer's disease in 2011 and was administered Alzheimer's drugs such as Donepezil, Galantamine, Lithium, etc. The condition was progressively worsening, the ADAS-cog score was 48/70, it was a severe form of Alzheimer's disease.
The patient was unable to recall their date of birth at that time, but was able to walk to the toilet to urinate or defecate on their own. Due to the rapid deterioration of their condition, other treatments were not possible, so hydrogen gas inhalation was started as an adjunctive/complementary therapy on Apr. 19, 2019.

[2] = Phase I clinical trials; cited from earlier work
[3] = test system: patient with a severe form of Alzheimer's disease; settings: one patient
Experimental: (§2) For explanation, we note that MRIs of the brain were performed • at the radiology department of Nishijima Hospital and the results were sent to the doctors via an electronic charting system. Digital tractographic imaging was performed using Neuro3D and GRAPPA technology, with five starting points set at locations where nerve bundles passed through the entire hippocampus. DTI was obtained at fractional anisotropy (FA) values of 0.1 and 0.2. The size of the pathway (tract) was calculated from the number of pixels in the pathway (tract) display, the number of pixels was calculated using Image J software. DTI at a fractional anisotropy (FA) value of 0.1 reflects visualization of the neuron as a whole, DTI reflects at a fractional anisotropy (FA) value of 0.2 • to the neural quality of the height visualisation.
as §1
The neural quality was assessed using advanced magnetic resonance imaging technology using the diffusion tensor imaging procedure.

[4] = test system: patients with Alzheimer's disease; settings: for changes in ADAS-cog scores versus control group not inhaling hydrogen gas: FIG. 2
Experimental: The ADAS-cog assesses and scores word list equipment, speaking ability, verbal comprehension, speech difficulties in spontaneous speech, completion of commands, object and finger naming, constructional tasks, ideomotor skills, orientation, word recognition, and ability to reproduce test instructions. The range of scores is from 0 to 70, the higher the score, the greater the cognitive impairment (normal→several).
(§3) A mixture of hydrogen gas 3% (v/v) and oxygen gas 21% (v/v) was administered to 8 patients with Alzheimer's disease for 1 hour 2× per day. Inhalation was continued for a period of 6 months, after which hydrogen gas inhalation was discontinued and progress monitored.
(§4) Treatment efficacy was assessed by clinical assessment using ADAS-cog and neural quality (integrity) was assessed by MRI using DTI.
Statistical significance was assessed by Student's t-test, * indicates outputs for p¿ 0.05, ** for p¿ 0.01, indicating significant statistical significance.

[5] = test system: test subjects with the alipoprotein E4 (APOE4) genotype exhibiting mild cognitive impairment (MCI); settings: APOE4 genotype subgroup of randomized clinical trials; Patent Document 1; cited from earlier work
[6] = test system: patients with Alzheimer's disease; settings: for DTI area at FA value of 0.2 (neural quality): FIG. 3; for normalised DTI value FA=0.2/FA=0.1, statistical analysis: Student's t-test
Experimental: as §2
For example, the progression of nerve fibers in the hippocampal region of the temporal lobe of the subject's brain can be monitored using diffusion tensor imaging [DTI] and the area of nerve fibers monitored can be analyzed using the process procedures described below. • i) the process of generating a diffusion tensor imaging [DTI] image extracted from the course of nerve fibers in the hippocampal region of the temporal lobe of the subject's brain; • ii) the process of setting five control inputs at regular intervals so that the nerve fiber pathways extracted by process (i) pass through them; • iii) a process in which the fractional anisotropy (FA) is set to 0.2 and an image of the extracted nerve fibers in the hippocampus region is obtained; • iv) a process in which the area of the nerve fiber path is calculated from the number of pixels in the image obtained during the process iii); • v) the process of detecting the manifestations of dementia or predementia based on the measured values of the area of nerve fiber pathways.
In the method described above, the hippocampal region refers to the hippocampal region and the parahippocampal gyrus region; the extracted images of nerve fibers in the hippocampal region are from the lateral and axial views.
When the fractional anisotropy (FA) value is set to 0.1, the extracted image of nerve fibers in the hippocampus region is obtained, and in the process of calculating the area of nerve fiber pathways from the number of pixels in a given image, the area of nerve pathways at FA 0.2 is divided by the area of nerve pathways at FA 0.1 to calculate the FA ratio (normalization).
as §3, §4
For a more accurate quantitative analysis, normalization was performed for each measurement. Data variability was corrected by dividing the F=0.2 value by the simultaneous F=0.1 value. The number of pixels in the corresponding neuronal bundle pathway at FA=0.2 was normalized (divided) by the number of pixels at FA=0.1, and the mean and standard error were obtained from the normalized values from 4 lateral and axial images from the right and left hemispheres of each patient. Statistical significance was assessed by Student's t-test, * indicates outputs for p¿ 0.05, ** for p¿ 0.01, indicating significant statistical significance of the results.

[HH] [hydrogen gas, Molecular hydrogen]
ability to urinate and defecate (incontinence of stool and urine) ([1]; ADAS-cog 48/70, 3% (v/v) hydrogen + 21% (v/v) oxygen 2x daily for one hour, after two years of inhalation): able to urinate and defecate on their own | fecal incontinence, frequency or severity of difficulties ([1]; January 2020, inhalation started Apr. 19, 2019): no improvement in the frequency or severity of difficulties | independent defecation ([1]; since Nov. 18, 2020, inhalation started Apr. 19, 2019): able to go and defecate on their own in almost all cases | safety of hydrogen gas inhalation [2]: safety of hydrogen gas inhalation has been confirmed | DTI display at FA=0.2 (qualitative neural quality) ([3]; FIG. 5D): new nerves have appeared | area of nerve fibers visualized in the DTI at FA=0.2 ([3]; after 2 years of inhalation, FIG. 5): increased | changes in DTI over time (effect of inhalation) ([3]; after 6 months of hydrogen gas inhalation, FIG. 5): the effect did not appear | number of pixels (DTI area) at F=0.1 and F=0.2 ([3]; after two years of inhalation (29 to 53 months), FIG. 6): slight increase in the number of pixels | changes in ADAS-cog scores versus control group not inhaling hydrogen gas ([4]; 6 months after cessation of inhalation, control 19 patients from past data): improvement persisted | average change in clinical symptoms assessed by ADAS-cog (cognitive function) ([4]; 8 patients, hydrogen gas 3% (v/v) + oxygen 21% (v/v), 1 hour 2x per day, continuous inhalation for 6 months, FIG. 1): an initial deterioration, but soon showed an improvement in cognitive function | average change in clinical symptoms assessed by ADAS-cog (cognitive impairment) ([4]; 8 patients, six months or one year after cessation of 6-month inhalation, compared to before treatment, FIG. 1): marked improvement in cognitive impairment | statistical significance of effect on ADAS-cog versus control and on normalised DTI ([4]; after hydrogen gas inhalation, FIGS. 2 and 4): statistically significant effect | changes in ADAS-cog scores versus control group not inhaling hydrogen gas ([4]; one year after cessation of treatment, compared to pre-treatment status): the improvement persisted compared to the pre-treatment status | condition of subjects with mild cognitive impairment [5]: improved the condition | normalised DTI value FA=0.2/FA=0.1 ([6]; 1 year after end of treatment, compared with pre-treatment condition, FIG. 4): beneficial effect, compared with the pre-treatment condition, persisting | DTI area at FA value of 0.2 (neural quality) ([6]; 6 months after cessation of hydrogen gas inhalation): persisted | normalised DTI value FA=0.2/FA=0.1, statistical analysis ([6]; 6 months after the end of treatment, FIG. 4): significant effect persisting | DTI area at FA value of 0.2 (neural quality) ([6]; after 6 months of continuous hydrogen gas inhalation, 9 patients as printed): neural quality was improved | normalised DTI value FA=0.2/FA=0.1, statistical analysis ([6]; after 6 months of inhalation, FIG. 4): significant effect | DTI area at FA value of 0.2 (neural quality) ([6]; one year after the end of inhalation, compared with start of inhalation): able to maintain a favorable result compared with the condition at the start of inhalation
